Results published in patent US20220153766A1, “CONDENSED TRICYCLIC COMPOUND USED AS KINASE INHIBITOR” (Hangzhou Innogate Pharma Co., Ltd., priority 2019, published 2022).

Assays:
EGFR (T790M/L858R/C797S) = EGFR (T790M/L858R/C797S) (Homo sapiens, UniProt P00533, C797S/L858R/T790M); test: EGFR (T790M/L858R/C797S) kinase activity inhibition, Caliper mobility shift assay; type: biochemical; details: kinase 2.5 nM, ATP 40 μM
Description: The basic method is the same as ALK activity test method 2. The test concentration of the compound starts at 2 μM, and is diluted 5 folds into 6 (7 for individual compounds) concentration points. […] Add 30 μL of stop solution containing EDTA to stop the kinase reaction. Use Caliper EZ Reader to read the conversion rate. Inhibition rate %=(Average positive control conversion rate %−Sample conversion rate %/(Average positive control conversion rate %−Average negative control conversion rate %). Among them: negative control wells represent the conversion rate readings without enzyme activity; positive control wells represent the conversion rate readings of wells without compound inhibition. Take the log value of the concentration as the X-axis, and the percentage inhibition rate on the Y-axis. Log (inhibitor) vs. response—Variable slope of analysis software GraphPad Prism 5 was used to fit the curve to obtain the IC50 value of each compound on the enzyme activity. Calculation formula: Y=Bottom+(Top−Bottom)/(1+10^((Log IC50−X)*HillSlope)).

[1] = target: Ba/F3_EGFR del19/T790M/C797S cells (Homo sapiens, UniProt P00533, T790M/C797S, cells depend on it, form not given); test: Ba/F3_EGFR (del19-T790M-C797S) cell proliferation inhibition, CTG, method 1; type: cell-based; details: 700 cells/well, 72 h, read-out: Ba/F3_EGFR (del19-T790M-C797S) cell proliferation inhibition (IC50 value) Method 1
Ba/F3_EGFR del19/T790M/C797S cells, sequence (P00533 with tags, fused parts or gaps DEL746-750/T790M/C797S, form open): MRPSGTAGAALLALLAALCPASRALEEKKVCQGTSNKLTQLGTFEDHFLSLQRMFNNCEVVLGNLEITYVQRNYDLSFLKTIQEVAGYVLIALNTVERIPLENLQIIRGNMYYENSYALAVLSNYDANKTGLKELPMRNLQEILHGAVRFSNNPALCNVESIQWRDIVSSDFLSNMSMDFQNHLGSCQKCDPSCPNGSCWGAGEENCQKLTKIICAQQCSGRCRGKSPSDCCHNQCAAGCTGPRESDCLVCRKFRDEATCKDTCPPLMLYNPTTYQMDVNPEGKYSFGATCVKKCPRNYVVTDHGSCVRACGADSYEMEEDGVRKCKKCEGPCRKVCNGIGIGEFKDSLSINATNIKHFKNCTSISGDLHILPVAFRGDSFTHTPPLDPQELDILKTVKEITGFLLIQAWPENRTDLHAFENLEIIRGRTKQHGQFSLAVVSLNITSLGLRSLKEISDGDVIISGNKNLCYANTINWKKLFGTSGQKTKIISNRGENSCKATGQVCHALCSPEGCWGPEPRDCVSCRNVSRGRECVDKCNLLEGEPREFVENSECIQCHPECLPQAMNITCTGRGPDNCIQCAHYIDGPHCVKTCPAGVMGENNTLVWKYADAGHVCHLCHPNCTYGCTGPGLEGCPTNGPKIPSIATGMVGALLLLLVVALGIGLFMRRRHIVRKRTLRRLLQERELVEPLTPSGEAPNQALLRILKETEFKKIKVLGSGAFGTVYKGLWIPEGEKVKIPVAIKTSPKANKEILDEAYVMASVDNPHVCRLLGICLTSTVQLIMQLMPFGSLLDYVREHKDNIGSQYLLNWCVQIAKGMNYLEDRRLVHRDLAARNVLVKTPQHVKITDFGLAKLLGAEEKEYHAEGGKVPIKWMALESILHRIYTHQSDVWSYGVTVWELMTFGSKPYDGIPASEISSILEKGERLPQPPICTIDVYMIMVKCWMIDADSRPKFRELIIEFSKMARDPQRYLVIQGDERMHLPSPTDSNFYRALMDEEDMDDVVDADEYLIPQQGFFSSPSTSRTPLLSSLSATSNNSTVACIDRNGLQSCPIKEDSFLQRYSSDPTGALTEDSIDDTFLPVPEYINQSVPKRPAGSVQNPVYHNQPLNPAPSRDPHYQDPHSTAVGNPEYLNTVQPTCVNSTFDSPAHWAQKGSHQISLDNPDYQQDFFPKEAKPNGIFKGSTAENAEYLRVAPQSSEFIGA

EGFR (T790M/L858R/C797S), sequence (P00533 25-1210 T790M/C797S/L858R): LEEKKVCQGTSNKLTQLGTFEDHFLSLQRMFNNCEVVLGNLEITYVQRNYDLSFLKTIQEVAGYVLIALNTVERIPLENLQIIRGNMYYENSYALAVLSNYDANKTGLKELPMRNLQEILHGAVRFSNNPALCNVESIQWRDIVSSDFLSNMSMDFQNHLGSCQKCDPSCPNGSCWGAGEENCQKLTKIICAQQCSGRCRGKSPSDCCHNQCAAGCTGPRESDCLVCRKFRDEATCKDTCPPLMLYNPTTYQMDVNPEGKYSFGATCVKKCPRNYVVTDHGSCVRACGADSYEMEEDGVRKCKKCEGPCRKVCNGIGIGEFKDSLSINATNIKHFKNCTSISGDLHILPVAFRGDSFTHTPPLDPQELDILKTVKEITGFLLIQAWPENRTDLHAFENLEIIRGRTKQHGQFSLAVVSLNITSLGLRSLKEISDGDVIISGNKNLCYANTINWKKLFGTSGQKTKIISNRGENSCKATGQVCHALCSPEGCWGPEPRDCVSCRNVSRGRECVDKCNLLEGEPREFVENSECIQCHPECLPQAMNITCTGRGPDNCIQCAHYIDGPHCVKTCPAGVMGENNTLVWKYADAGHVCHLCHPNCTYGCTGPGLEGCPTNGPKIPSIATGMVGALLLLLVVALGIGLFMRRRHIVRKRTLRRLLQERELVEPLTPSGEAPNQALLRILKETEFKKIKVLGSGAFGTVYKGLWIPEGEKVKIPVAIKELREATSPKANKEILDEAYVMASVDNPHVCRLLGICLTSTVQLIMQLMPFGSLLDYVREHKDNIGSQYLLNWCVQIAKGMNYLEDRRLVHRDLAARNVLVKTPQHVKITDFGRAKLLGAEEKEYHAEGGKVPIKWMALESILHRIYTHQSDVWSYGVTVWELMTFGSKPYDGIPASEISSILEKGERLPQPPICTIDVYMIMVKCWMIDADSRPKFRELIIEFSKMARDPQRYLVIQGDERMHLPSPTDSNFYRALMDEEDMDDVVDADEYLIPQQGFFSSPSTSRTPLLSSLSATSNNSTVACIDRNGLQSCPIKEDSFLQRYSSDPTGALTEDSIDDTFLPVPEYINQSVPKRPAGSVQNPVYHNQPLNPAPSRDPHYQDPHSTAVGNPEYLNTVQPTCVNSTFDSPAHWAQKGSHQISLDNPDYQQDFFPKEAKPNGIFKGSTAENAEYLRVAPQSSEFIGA

- IC50 (EGFR (T790M/L858R/C797S)): < 3 nM
- GI50 [1]: < 20 nM
Structure (SMILES): Cc1cc(Nc2ncc(Cl)c(Nc3ccccc3P(C)(C)=O)n2)cc2c1N1CCN(C3CCN(C)CC3)C[C@@H]1CO2 [Compound 27R]
